Source: patent US20200003759A1, “METHODS FOR IDENTIFYING METAP-2 MODULATORS” (Zafgen, Inc., priority 2017, published 2020)
Where two headings read alike, the source gives them in different places.

Key:
[1] = test system: p53; test: p53 protein level in HUVEC lysate; type: cell-based, human; settings: discrete time intervals and concentrations (FIG. 4)
Protocol: (§1) Cell lysates were stored at −80° C.
(§2) All values obtained were normalized against protein concentration.

[2] = cited from earlier work
[3] = type: in vivo
Protocol: Male beagle dogs 10 to 20 months of age (Marshall BioResources, North Rose, NY) were individually housed at the testing facility. […] […]. […] Body weight and food intake were recorded daily. Blood was collected before each dose and 4 hours after each dose for hematology (e.g., platelet count), coagulation parameters (e.g., thrombin time, antithrombin III), and protein panel analysis (e.g., D-dimer) (Nextcea, Woburn, Mass.).

[4] = test system: HUVEC; test: Inhibition of HUVEC proliferation as a function of drug exposure time (washout assay)
Protocol: (§3) After incubation with drug or vehicle, EC proliferation was analyzed using a DNA dye (CyQUANT®) added to lysed cells to provide a fluorescent signal relative to the amount of DNA, allowing a measure of cell density.
A washout assay protocol is as follows: Day 1: plate cells: Plate cells at 0.3×10^4 cells/well in collagen coated 96-well plates; Incubate cells at 37° C., 5% CO2 in a humidified atmosphere overnight. Day 2: dilute and add MetAP2 inhibitor compounds: Dilute compounds in cell culture medium to the appropriate concentration. Add medium containing compound onto cells. Incubate cells at 37° C., 5% CO2 in a humidified atmosphere for the appropriate timepoint. Washout: After the indicated time, remove medium from the relevant samples and wash twice with PBS. Replace with fresh medium Incubate at 37° C., 5% CO2 in a humidified atmosphere until final incubation time. […] Measure cell proliferation using CyQuant assay.
The cells were incubated for 72 hrs and cell proliferation was measured to assess inhibition. […] Error bars represent the standard error of the mean for each condition (n=8 replicates per test condition pooled from 3 experiments).

[5] = test system: p21; test: p21 protein level in HUVEC lysate; type: cell-based, human
Protocol: as §1, §2

[6] = test system: von Willebrand factor (vWF); test: vWF level in HUVEC lysate; type: cell-based, human; settings: discrete time intervals and concentrations (FIG. 3)
Protocol: as §1, §2

[7] = test system: plasminogen activator inhibitor-1 (PAI-1); test: PAI-1 protein level in HUVEC lysate; type: cell-based, human
Protocol: as §1, §2

[8] = test system: HUVEC; test: Inhibition of HUVEC (EC) proliferation, continuous exposure, CyQUANT DNA dye; settings: Homo sapiens
Protocol: In vitro studies were conducted in cultured HUVECs (Lonza, Amboise, France). Cells were cultured in endothelial growth medium 2 cell culture media (EGM-2, Lonza, Amboise, France), passaged by seeding at 3×10^3 cells/mL on T175 flasks, and allowed to reach approximately 80% confluence before experiments were conducted. Cells were trypsinized and counted using trypan blue exclusion method using an automated Cedex cell counter.
as §3

[9] = test system: thrombomodulin (TM)
Protocol: For LC-MS/MS sample preparation, cell culture media was removed, cells were washed with 10 mL of Dulbecco's phosphate-buffered saline (DPBS), and 500 μL of T-PER lysis buffer was added. Cell lysates were stored at −80° C. […] For the 4- and 8-hour incubations, cells were maintained by standard culture for the remainder of the 72-hour incubation period. Cell cycle protein levels were assessed using enzyme-linked immunosorbent assays.
HUVEC cells were exposed to compounds at concentrations of 1 nM, 3 nM, 10 nM, and 20 nM. […] The protein assays performed included measurements of total p21, thrombomodulin, total p53, PAI-1, and von Willibrand factor (vWF). All values obtained were normalized against protein concentration.

[10] = patients with type 2 diabetes, 26 weeks of treatment
[11] = dogs, 0.6 mg/kg s.c. Q3D (FIG. 5)
[12] = 10 nM, 2-hour incubation, washed (FIG. 6B)
[13] = exposures as short as one hour (FIG. 1C)
[14] = 72 hours of incubation, all concentrations (1, 3, 10, 20 nM)
[15] = dogs, 2 mg/kg s.c. Q3D for 10 days
[16] = shorter incubations of 4 or 8 hours

CO[C@@H]1[C@H](OC(=O)/C=C/c2ccc(OCCN(C)C)cc2)CC[C@]2(CO2)[C@H]1[C@@]1(C)O[C@@H]1CC=C(C)C [Beloranib, beloranib]
p53 protein levels [1]: no effects on p53 protein levels
adverse events ([2]; patients with obesity, PWS, or type 2 diabetes): adverse events (AEs) of venous thromboembolism occurred
reduction in HbA1c [2, 10]: 2.0%
weight loss [2, 10]: 13%
tolerability ([3]; dogs, 0.6 mg/kg s.c. Q3D): not well tolerated
D-dimer concentrations [3, 11]: increased
antithrombin III [3, 11]: decreased
platelet count [3, 11]: decreased
thrombin time [3, 11]: decreased
hemostasis in toxicology studies ([3]; dogs, 0.6 mg/kg s.c. Q3D, within 2 weeks of drug administration): some animals developed evidence of impaired hemostasis
reduction of cell proliferation measured at 72 hours [4, 12]: approximately 60%
effects on EC proliferation after short exposure [4, 13]: occurred rapidly
lowest concentration with effects on EC proliferation at short exposure [4, 13]: 11 × the EC50
p21 protein level [5, 14]: increased p21
p21 protein level ([5]; short 4- or 8-hour incubations, 10 and 20 nM): increased p21
vWF levels [6]: no effects on vWF levels
PAI-1 protein level ([7]; 10 and 20 nM at the earliest timepoint): increased PAI-1 levels
PAI-1 protein level ([7]; all concentrations at 72 hours): increased PAI-1 levels

CO[C@@H]1[C@H](OC(=O)N2CC(CCN3CCOCC3)C2)CC[C@]2(CO2)[C@H]1[C@@]1(C)O[C@@H]1CC=C(C)C [Compound A]
p53 protein levels [1]: no effects on p53 protein levels
EC50 ([8]; 72 h, read-out: concentration that inhibited EC proliferation by 50% (EC50)): 0.24 nM
EC50 ([8]; read-out: HUVEC Proliferation (EC50, nM)): 0.2 nM
tolerability ([3]; dog, in vivo, sc, 2 mg/kg): well tolerated
body weight [3, 15]: Weight loss was observed
food intake [3, 15]: unchanged
changes in clinical observations, hematology (platelet count), D-dimer, thrombin time, antithrombin III ([3]; dogs, 2 mg/kg s.c. Q3D for 10 days (FIG. 5)): no adverse changes
survival ([3]; dogs, 2 mg/kg s.c. Q3D, scheduled dosing period): all animals survived
effect on cell proliferation measured at 72 hours [4, 12]: no effect on cell proliferation
effect on cell proliferation after short-term exposure ([4]; 4 hours or less, concentrations up to 50× the EC50): no effect on cell proliferation
continuous exposure time needed for robust inhibition of EC proliferation ([4]; FIG. 1B): ≥ 48 h
% inhibition 6XIC90 4 h exposure ([4]; HUVEC proliferation, 6XIC90, 4 h exposure): 5.6%
% inhibition 6XIC90 24 h exposure ([4]; HUVEC proliferation, 6XIC90, 24 h exposure): 41%
% inhibition 20XIC90 4 h exposure ([4]; HUVEC proliferation, 20XIC90, 4 h exposure): 12.4%
% inhibition 20XIC90 24 h exposure ([4]; HUVEC proliferation, 20XIC90, 24 h exposure): 40%
p21 protein level [5, 14]: increased p21
p21 protein level [5, 16]: no meaningful changes
TM protein level [9, 14]: reduced TM protein levels
TM protein level [9, 16]: no meaningful changes
vWF levels [6]: no effects on vWF levels
PAI-1 protein level ([7]; any of the concentrations or time points): no effect on PAI-1 protein levels
